From US9567384B2, “Phosphorylation on the Thr-248 and/or Thr-250 residues of transcription factor E2F4 as a therapeutic target in pathological processes associated with somatic polyploidy” (CONSEJO SUPERIOR DE INVESTIGACIONES CIENTIFICAS (CSIC), priority 2011, dated 2017)

Assays:
[1] = test system: chick embryo retinal cell neurogenic cultures E6; test: Incorporation of BrdU (entry into S phase) in chick embryo retinal cell neurogenic cultures E6; type: cell-based
Protocol: (§1) These cells respond to NGF by inducing cell cycle reactivation that leads to somatic tetraploidy (endoreduplication) (Morillo et al., 2010). A. Western blot with anti-active p38^MAPK (P-p38^MAPK) and anti-p38^MAPK in nuclear extracts of the mentioned neurogenic cultures treated for the indicated time with 100 ng/ml NGF. The normalized ratios between P-p38^MAPK and p38^MAPK levels are indicated at the bottom. B. Immunohistochemical staining with anti-active p38^MAPK antibodies (P-p38^MAPK) in the mentioned neurogenic cultures treated with 100 ng/ml NGF for 20 minutes. The nuclei were labeled with bisbenzimide (Bisb.). […] C. Luciferase assay in extracts of chick embryo retinal cell neurogenic cultures E6 transfected with a plasmid expressing luciferase under the control of cMyc gene promoter, known for its response to E2F during G1/S transition, and another plasmid with the constitutive expression of β-galactosidase. The luciferase/β-galactosidase ratio values are depicted as “luciferase activity”. […] This effect is blocked with selective p38^MAPK inhibitor SB203580 (used at 5 μM). D. Incorporation of BrdU to indicate entry into S phase in chick embryo retinal cell neurogenic cultures E6.
A. Luciferase activity analyzed as described in FIG. 2C. […] Based on the results shown in panels A and B, it is deduced that p38^MAPK acts exclusively through Thr261/Thr263 residues. C. Luciferase activity analyzed as described in FIG. 2C.

cMyc gene promoter = test: Luciferase assay, cMyc gene promoter reporter in chick embryo retinal cell neurogenic cultures E6; type: cell-based
Protocol: as §1

E2F4 = test: Western blot with anti-phosphoThr antibodies in extracts immunoprecipitated with anti-E2F4 antibodies; type: cell-based, chick; details: 100 ng/ml NGF
p38^MAPK = test: Immunohistochemical staining with anti-active p38MAPK antibodies in neurogenic cultures; type: cell-based, chick; details: 100 ng/ml NGF for 20 minutes
Protocol: as §1

[2] = expression of E2F4-ND, 100 ng/ml NGF

Compound: E2F4-ND: negative dominant form of chicken E2F4 characterized by Thr261Ala/Thr263Ala substitutions, preventing phosphorylation by p38MAPK
- effect of NGF on the incorporation of BrdU [1, 2]: prevents the effect
- effect of NGF on the cell cycle in neurogenic retinal cultures ([1]; summary of FIG. 4C, FIG. 4D (luciferase and BrdU)): capable of inhibiting the effect of NGF
- effect of NGF on cMyc promoter activity (luciferase activity) (cMyc gene promoter; [2]): prevents the effect

Compound: E2F4-CA: constitutively active form of chicken E2F4 characterized by Thr261Glu/Thr263Glu substitutions
- incorporation of BrdU ([1]; cells transfected with E2F4-CA): increases significantly
- incorporation of BrdU ([1]; cells transfected with E2F4-CA in the presence of SB203580 5 μM): can be observed even in the presence
- mimicking the effect of NGF on retinal neurons (cell cycle reactivation) ([1]; summary of FIG. 4A, FIG. 4B (luciferase and BrdU)): capable of mimicking the effect of NGF
- cMyc promoter activity (luciferase activity) (cMyc gene promoter; expression of E2F4-CA in the presence of SB203580 5 μM): can be observed even in the presence
- cMyc promoter activity (luciferase activity) (cMyc gene promoter; expression of E2F4-CA, transfected cells): induces cMyc promoter activity

Compound: C[S+]([O-])c1ccc(-c2nc(-c3ccncc3)c(-c3ccc(F)cc3)[nH]2)cc1 (stereo not drawn) [SB203580, reference compound]
- effect on NGF-induced increase in the proportion of cells in S phase (BrdU) ([1]; 100 ng/ml NGF, inhibitor used at 5 μM): blocked
- effect on NGF-promoted phosphorylation on threonine residues of E2F4 (E2F4; SB203580 used at 5 μM): inhibits such phosphorylation
- effect on NGF-induced cMyc promoter activation (luciferase activity) (cMyc gene promoter; 100 ng/ml NGF, SB203580 used at 5 μM): blocked

Compound: nerve growth factor [NGF]
- incorporation of BrdU, proportion of cells in S phase ([1]; 100 ng/ml NGF): an increase in the proportion of cells in S phase
- phosphorylation on threonine residues of E2F4 (E2F4): increase in phosphorylation on threonine residues
- luciferase activity (luciferase/β-galactosidase ratio), cMyc promoter (cMyc gene promoter; 100 ng/ml NGF): entails cMyc promoter activation
- active p38MAPK (P-p38MAPK) signal in the nucleus (p38^MAPK): signal increase
